Reference: ChEMBL document CHEMBL3817825, “Synthesis and biological evaluation of Schiff base-linked imidazolyl naphthalimides as novel potential anti-MRSA agents” (2016)
≈ marks a conversion by molar mass, not a printed value.

How the values were obtained:
[1] = test system: Staphylococcus aureus; experiment: Antibacterial activity against methicillin-resistant Staphylococcus aureus N315 after 24 hrs by two fold serial dilution method; type: functional; conditions: N315, 24 h
[2] = test system: Bacillus subtilis; experiment: Antibacterial activity against Bacillus subtilis ATCC6633 after 24 hrs by two fold serial dilution method; type: functional; conditions: ATCC6633, 24 h
[3] = test system: Pseudomonas aeruginosa; experiment: Antibacterial activity against Pseudomonas aeruginosa ATCC27853 after 24 hrs by two fold serial dilution method; type: functional; conditions: ATCC27853, 24 h
[4] = test system: Escherichia coli; experiment: Antibacterial activity against Escherichia coli JM109 after 24 hrs by two fold serial dilution method; type: functional; conditions: JM109, 24 h
[5] = test system: Staphylococcus aureus; experiment: Antibacterial activity against Staphylococcus aureus ATCC25923 after 24 hrs by two fold serial dilution method; type: functional; conditions: ATCC25923, 24 h
[6] = test system: Cyberlindnera jadinii; experiment: Antifungal activity against Candida utilis ATCC9950 after 24 hrs by two fold serial dilution method; type: functional; conditions: Williopsis jadinii, ATCC9950, 24 h
[7] = test system: Saccharomyces cerevisiae; experiment: Antifungal activity against Beer yeast ATCC9763 after 24 hrs by two fold serial dilution method; type: functional; conditions: ATCC9763, 24 h
[8] = test system: Salmonella typhi; experiment: Antibacterial activity against Bacillus typhi after 24 hrs by two fold serial dilution method; type: functional, Salmonella enterica subsp. enterica serovar Typhi; conditions: Salmonella enterica
[9] = test system: Aspergillus flavus; experiment: Antifungal activity against Aspergillus flavus ATCC204304 after 24 hrs by two fold serial dilution method; type: functional; conditions: ATCC204304, 24 h
[10] = test system: Bacillus; experiment: Antibacterial activity against Bacillus proteus ATCC13315 after 24 hrs by two fold serial dilution method; type: functional; conditions: ATCC13315, 24 h
[11] = test system: Escherichia coli; experiment: Antibacterial activity against Escherichia coli DH52 after 24 hrs by two fold serial dilution method; type: functional; conditions: DH52, 24 h
[12] = test system: Micrococcus luteus; experiment: Antibacterial activity against Micrococcus luteus ATCC4698 after 24 hrs by two fold serial dilution method; type: functional; conditions: ATCC4698, 24 h
[13] = test system: Shigella dysenteriae; experiment: Antibacterial activity against Shigella dysenteriae after 24 hrs by two fold serial dilution method; type: functional
[14] = test system: Bacillus subtilis; experiment: Potency index, ratio of chloromycin MIC to compound MIC for Bacillus subtilis ATCC6633; type: functional
[15] = test system: Candida albicans; experiment: Antifungal activity against Candida albicans ATCC76615 after 24 hrs by two fold serial dilution method; type: functional; conditions: ATCC76615, 24 h
[16] = test system: Candida; experiment: Antifungal activity against Candida mycoderma ATCC10231 after 24 hrs by two fold serial dilution method; type: functional; conditions: ATCC10231, 24 h
[17] = test system: Escherichia coli; experiment: Potency index, ratio of chloromycin MIC to compound MIC for Escherichia coli JM109; type: functional

Compound | MIC [1] [µM] | MIC [2] [µM] | MIC [3] [µM] | MIC [4] [µM] | MIC [5] [µM] | MIC [6] [µM] | MIC [7] [µM] | MIC [8] [µM] | MIC [9] [µM] | MIC [10] [µM] | MIC [11] [µM] | MIC [12] [µM] | MIC [13] [µM] | Ratio [14] | MIC [15] [µM] | MIC [16] [µM] | Ratio [17]
CCCCc1nc(Cl)c(/C=N/N2C(=O)c3cccc4c(N5CCOCC5)ccc(c34)C2=O)n1Cc1cccc(Cl)c1 | 430 (≈ 254 µg/mL) | 7 (≈ 4.13 µg/mL) | 430 (≈ 254 µg/mL) | 430 (≈ 254 µg/mL) | 430 (≈ 254 µg/mL) | 220 (≈ 130 µg/mL) | 220 (≈ 130 µg/mL) | 0.43 (≈ 0.254 µg/mL) | 430 (≈ 254 µg/mL) | 220 (≈ 130 µg/mL) | 430 (≈ 254 µg/mL) | 430 (≈ 254 µg/mL) | 0.11 (≈ 0.065 µg/mL) | 14 | 430 (≈ 254 µg/mL) | 430 (≈ 254 µg/mL) | –
CCCCCn1c(CCCC)nc(Cl)c1/C=N/N1C(=O)c2cccc3c(N4CCOCC4)ccc(c23)C1=O | 480 (≈ 257 µg/mL) | 240 (≈ 129 µg/mL) | 960 (≈ 515 µg/mL) | 480 (≈ 257 µg/mL) | 240 (≈ 129 µg/mL) | 7 (≈ 3.75 µg/mL) | 480 (≈ 257 µg/mL) | 0.24 (≈ 0.129 µg/mL) | 480 (≈ 257 µg/mL) | 480 (≈ 257 µg/mL) | 480 (≈ 257 µg/mL) | 240 (≈ 129 µg/mL) | 0.48 (≈ 0.257 µg/mL) | – | 480 (≈ 257 µg/mL) | 480 (≈ 257 µg/mL) | –
CCCCCCCn1c(CCCC)nc(Cl)c1/C=N/N1C(=O)c2cccc3c(N4CCOCC4)ccc(c23)C1=O | 450 (≈ 254 µg/mL) | 450 (≈ 254 µg/mL) | 450 (≈ 254 µg/mL) | 450 (≈ 254 µg/mL) | 450 (≈ 254 µg/mL) | 450 (≈ 254 µg/mL) | 450 (≈ 254 µg/mL) | 0.45 (≈ 0.254 µg/mL) | 450 (≈ 254 µg/mL) | 450 (≈ 254 µg/mL) | 450 (≈ 254 µg/mL) | 450 (≈ 254 µg/mL) | 0.91 (≈ 0.513 µg/mL) | – | 230 (≈ 130 µg/mL) | 450 (≈ 254 µg/mL) | –
CCCCCCCCCCCCn1c(CCCC)nc(Cl)c1/C=N/N1C(=O)c2cccc3c(N4CCOCC4)ccc(c23)C1=O | 200 (≈ 127 µg/mL) | 800 (≈ 507 µg/mL) | 800 (≈ 507 µg/mL) | 10 (≈ 6.34 µg/mL) | 400 (≈ 254 µg/mL) | 10 (≈ 6.34 µg/mL) | 400 (≈ 254 µg/mL) | 0.8 (≈ 0.507 µg/mL) | 810 (≈ 514 µg/mL) | 800 (≈ 507 µg/mL) | 800 (≈ 507 µg/mL) | 400 (≈ 254 µg/mL) | 0.8 (≈ 0.507 µg/mL) | – | 810 (≈ 514 µg/mL) | 810 (≈ 514 µg/mL) | 10
CCCCCCCCn1c(CCCC)nc(Cl)c1/C=N/N1C(=O)c2cccc3c(N4CCOCC4)ccc(c23)C1=O | 440 (≈ 254 µg/mL) | 440 (≈ 254 µg/mL) | 880 (≈ 509 µg/mL) | 220 (≈ 127 µg/mL) | 220 (≈ 127 µg/mL) | 880 (≈ 509 µg/mL) | 880 (≈ 509 µg/mL) | 0.44 (≈ 0.254 µg/mL) | 880 (≈ 509 µg/mL) | 440 (≈ 254 µg/mL) | 440 (≈ 254 µg/mL) | 880 (≈ 509 µg/mL) | 0.88 (≈ 0.509 µg/mL) | – | 440 (≈ 254 µg/mL) | 440 (≈ 254 µg/mL) | –
CCCCc1nc(Cl)c(/C=N/N2C(=O)c3cccc4c(N5CCCC5)ccc(c34)C2=O)[nH]1 | 280 (≈ 126 µg/mL) | 570 (≈ 256 µg/mL) | 570 (≈ 256 µg/mL) | 280 (≈ 126 µg/mL) | 570 (≈ 256 µg/mL) | 280 (≈ 126 µg/mL) | 570 (≈ 256 µg/mL) | 0.57 (≈ 0.256 µg/mL) | 570 (≈ 256 µg/mL) | 570 (≈ 256 µg/mL) | 280 (≈ 126 µg/mL) | 280 (≈ 126 µg/mL) | 0.57 (≈ 0.256 µg/mL) | – | 140 (≈ 63 µg/mL) | 140 (≈ 63 µg/mL) | –
CCCCc1nc(Cl)c(/C=N/N2C(=O)c3cccc4c(N5CCOCC5)ccc(c34)C2=O)n1Cc1ccc(Cl)cc1 | 430 (≈ 254 µg/mL) | 430 (≈ 254 µg/mL) | 870 (≈ 514 µg/mL) | 430 (≈ 254 µg/mL) | 870 (≈ 514 µg/mL) | 220 (≈ 130 µg/mL) | 220 (≈ 130 µg/mL) | 0.43 (≈ 0.254 µg/mL) | 870 (≈ 514 µg/mL) | 430 (≈ 254 µg/mL) | 430 (≈ 254 µg/mL) | 430 (≈ 254 µg/mL) | 0.87 (≈ 0.514 µg/mL) | – | 430 (≈ 254 µg/mL) | 430 (≈ 254 µg/mL) | –
CCCCc1nc(Cl)c(/C=N/N2C(=O)c3cccc4c(N5CCOCC5)ccc(c34)C2=O)n1Cc1ccccc1Cl | 430 (≈ 254 µg/mL) | 430 (≈ 254 µg/mL) | 870 (≈ 514 µg/mL) | 110 (≈ 65 µg/mL) | 870 (≈ 514 µg/mL) | 430 (≈ 254 µg/mL) | 430 (≈ 254 µg/mL) | 0.43 (≈ 0.254 µg/mL) | 220 (≈ 130 µg/mL) | 430 (≈ 254 µg/mL) | 870 (≈ 514 µg/mL) | 870 (≈ 514 µg/mL) | 0.22 (≈ 0.13 µg/mL) | – | 430 (≈ 254 µg/mL) | 870 (≈ 514 µg/mL) | –
CCCCc1nc(Cl)c(/C=N/N2C(=O)c3cccc4c(N5CCOCC5)ccc(c34)C2=O)[nH]1 | 70 (≈ 32.6 µg/mL) | 550 (≈ 256 µg/mL) | 70 (≈ 32.6 µg/mL) | 270 (≈ 126 µg/mL) | 270 (≈ 126 µg/mL) | 550 (≈ 256 µg/mL) | 270 (≈ 126 µg/mL) | 0.27 (≈ 0.126 µg/mL) | 550 (≈ 256 µg/mL) | 270 (≈ 126 µg/mL) | 270 (≈ 126 µg/mL) | 270 (≈ 126 µg/mL) | 0.07 (≈ 0.0326 µg/mL) | – | 270 (≈ 126 µg/mL) | 140 (≈ 65.2 µg/mL) | –
CCCCc1nc(Cl)c(/C=N/N2C(=O)c3cccc4c(N5CCCCC5)ccc(c34)C2=O)[nH]1 | 280 (≈ 130 µg/mL) | 280 (≈ 130 µg/mL) | 560 (≈ 260 µg/mL) | 560 (≈ 260 µg/mL) | 280 (≈ 130 µg/mL) | 280 (≈ 130 µg/mL) | 550 (≈ 255 µg/mL) | 0.56 (≈ 0.26 µg/mL) | 550 (≈ 255 µg/mL) | 560 (≈ 260 µg/mL) | 560 (≈ 260 µg/mL) | 280 (≈ 130 µg/mL) | 0.28 (≈ 0.13 µg/mL) | – | 140 (≈ 65 µg/mL) | 550 (≈ 255 µg/mL) | –
